Legend:
[1] = test system: 5-LO product LTC4 from isolated human monocytes; experiment: Inhibition of 5-LO product LTC4 from isolated human monocytes (A23187); type: cell-based; conditions: Monocyte, calcium ionophore A23187, 95% confidence interval in brackets, read-out: Human monocyte LTC4 IC50 (CI)
Description: Mononuclear cells were first isolated from heparinised blood using the Ficoll-Hypaque gradient centrifugation method. Monocytes were subsequently purified by adherence to plastic according to standard protocols. The purity of the adherent monocytes (CD14+) was routinely confirmed by flow cytometry to be >95% and viability (by trypan blue exclusion method) was routinely >97%. Adherent monocytes were then washed and incubated in 190 µl culture medium RPMI-1640 supplemented with 100 U/ml penicillin, 100 µg/ml streptomycin and 10% heat-inactivated foetal bovine serum (Sigma-Aldrich, St Louis, MO). […] After further incubation for 15 min, the culture supernatants were recovered by centrifugation and stored at −40 °C pending LTC4 determination.
(§1) Appropriately diluted supernatants were assayed for the released products – LTs (LTB4 and LTC4), by the enzyme immunoassay (EIA) method using assay kits supplied by R&D Systems (Minneapolis, MN) and following the manufacturer’s instructions.
(§2) All data were analysed using GraphPad Prism software (GraphPad Software, San Diego, CA). […] Differences between experimental groups were first analysed by one-way ANOVA, followed by Bonferroni’s post-hoc test. A p-value of less than 0.05 was taken as statistically significant.

[2] = test system: 5-LO-dependent generation of LTB4 from activated human whole blood; experiment: Inhibition of 5-LO product LTB4 from activated human whole blood (LPS/FMLP); type: cell-based; conditions: LPS-primed, FMLP-stimulated human whole blood; 95% confidence interval in brackets; read-out: Human whole blood LTB4 IC50 (CI)
Description: All compounds were evaluated for inhibitory activity against the 5-LO-dependent generation of LTB4 from activated human whole blood. With ethical approval from the Health Sciences Centre Ethical Committee of Kuwait University, heparinised fresh human blood samples from apparently healthy individuals of both sexes were obtained from the Kuwait Central Blood Bank. All donors gave informed consent and the work was carried out in accordance with the “Declaration of Helsinki” for experiments involving human subjects. Aliquots of 185 µl of whole blood were dispensed into each well of a 96-well culture plate containing 5 µl of the priming agent, LPS (1 µg/ml final concentration). […] After further incubation for 15 min at 37 °C, 5 µl of FMLP (1 µM final concentration) was added to stimulate LT production. The reaction was stopped 15 min later, and the supernatants were recovered by centrifugation and stored at −40 °C pending analysis of LTB4 content.
as §1, §2

[3] = test system: leukotriene (LT) biosynthesis / 5-LO; experiment: Overall activity across the four in vitro test systems (three cell-based LT release assays and 5-LO)
Description: Furthermore, in order to confirm that the in vitro inhibitory activity of the compounds was not due to the direct toxic effects on the cells, the effect of the compounds on the viability of isolated human monocytes after 3 h and 24 h treatment was performed. Finally, in vivo anti-inflammatory studies were performed using the zymosan-induced peritoneal inflammation model in mice, which is a well-known model in which the LTs are known to play a critical role[26].
The inhibitory activity data for the tested compounds obtained in three cell-based in vitro test systems - LTB4 release from human whole blood, LTC4 release from isolated human monocytes and LTC4 release from IgE/antigen-activated mouse mast cells, are shown in Table 1. Similar data on the direct inhibitory effect on the enzymatic activity of recombinant human 5-LO, together with the calculated Clog P (log of partition coefficient) values, which is an indication of the lipophilicity of each compound, are also shown in Table 1.

[4] = test system: zymosan-induced peritoneal inflammation; experiment: Zymosan-induced peritoneal inflammation model in mice; type: in vivo, mouse; conditions: for Inhibition of total LTC4 content of the peritoneal lavage fluid: p < 0.001 vs zymosan plus vehicle
Description: Female Balb/c mice 6 to 8-weeks-old obtained from the Animal Resources Centre of the Health Sciences Centre, Kuwait University, were used. They were maintained under temperature-controlled conditions with an artificial 12-h light/dark cycle and allowed standard chow and water ad libitum. The study was carried out in compliance with the Regulations for the Use of Laboratory Animals in the Health Sciences Centre, Kuwait University, and complied with the National Institute of Health guide for the care and use of laboratory animals (NIH Publication # 8023, revised 1978). The zymosan-induced peritonitis model - a recognised LT-mediated inflammatory reaction, was used. […] After 30 min, all groups were injected intraperitoneally with 0.2 ml of activated zymosan (2 mg/ml) except the control group that received 0.2 ml PBS. After 2 h, all animals were killed, and the peritoneal exudate collected by washing the cavity with 3 ml of heparinised (10 IU/ml) PBS. Cells in the exudate were recovered by centrifugation and counted in a haemocytometer while the supernatant volume was recorded and then stored frozen at −78 °C until used for the determination of LTC4 by ELISA as detailed above.

[5] = 10 mg/kg subcutaneously 30 min before zymosan

IC50 [1]: 900 nM
IC50 [2]: 700 nM
IC50 ([3]; summary statements, in vitro test systems, read-out: IC50 (test system not specified / across test systems)): < 1000 nM
Compound: CCCCCCC(=O)N(O)C[C@H]1CN(c2ccc(N3CCOCC3)c(F)c2)C(=O)O1 [PH-249, (R)-N-((3-(3-fluoro-4-morpholinophenyl)-2-oxooxazolidin-5-yl)methyl)-N-hydroxyheptanamide]
Activity across the in vitro test systems (in words) ([3]; cell-based systems and cell-free 5-LO): active in all four test systems
Inhibition of cellular infiltration (total cellular content of peritoneal lavage) [4, 5]: only the inhibition by the higher dose reached statistical significance
Inhibition of total LTC4 content of the peritoneal lavage fluid [4, 5]: highly significant inhibition
Inhibition of total LTC4 content of the peritoneal lavage fluid ([4]; 30 mg/kg subcutaneously 30 min before zymosan): highly significant inhibition
Inhibition of cellular infiltration (total cellular content of peritoneal lavage) ([4]; 30 mg/kg subcutaneously 30 min before zymosan, p < 0.01 vs zymosan plus vehicle): reached statistical significance

Source: paper PMC7470027, “Synthesis and structure-activity relationships of novel 5-(hydroxamic acid)methyl oxazolidinone derivatives as 5-lipoxygenase inhibitors” (Journal of Enzyme Inhibition and Medicinal Chemistry, 2020)
